Measured values as given in ChEMBL document CHEMBL1143055, “2,3,5-Substituted tetrahydrofurans as cancer chemopreventives. Part 1: synthesis and anti-cancer activities of 5-hydroxymethyl-2,3-diaryl-tetrahydro-furan-3-ols” (2007).

How the values were obtained:
MCF7 = assay: Antitumor activity against human MCF7 cells; assay type: functional
NCI/ADR-RES = assay: Antitumor activity against human NCI/ADR-RES cells; assay type: functional
[1] = Antitumor activity against human […] cells; assay type: functional
[2] = Antitumor activity against human HS 578T cells; assay type: functional
CCRF-CEM [3] = assay: Antitumor activity against human CCRF-CEM cells; assay type: functional
[4] = Antitumor activity against human HL60 (TB) cells; assay type: functional, HL-60(TB); conditions: HL-60
K562 = assay: Antitumor activity against human K562 cells; assay type: functional
MOLT-4 = assay: Antitumor activity against human MOLT4 cells; assay type: functional
RPMI-8226 = assay: Antitumor activity against human RPMI8226 cells; assay type: functional
SR [5] = assay: Antitumor activity against human SR cells; assay type: functional
A549 = assay: Antitumor activity against human A549 cells; assay type: functional
EKVX = assay: Antitumor activity against human EKVX cells; assay type: functional
HOP-62 = assay: Antitumor activity against human HOP62 cells; assay type: functional
HOP-92 [6] = assay: Antitumor activity against human HOP92 cells; assay type: functional
NCI-H226 = assay: Antitumor activity against human NCI-H226 cells; assay type: functional
NCI-H23 = assay: Antitumor activity against human NCI-H23 cells; assay type: functional
[7] = Antitumor activity against human NCI-H322 cells; assay type: functional
NCI-H460 = assay: Antitumor activity against human NCI-H460 cells; assay type: functional
NCI-H522 = assay: Antitumor activity against human NCI-H522 cells; assay type: functional
COLO 205 = assay: Antitumor activity against human COLO205 cells; assay type: functional
HCC 2998 = assay: Antitumor activity against human HCC2998 cells; assay type: functional
HCT-116 = assay: Antitumor activity against human HCT116 cells; assay type: functional
HCT-15 = assay: Antitumor activity against human HCT15 cells; assay type: functional
HT-29 = assay: Antitumor activity against human HT29 cells; assay type: functional
KM12 = assay: Antitumor activity against human KM12 cells; assay type: functional
SW-620 = assay: Antitumor activity against human SW620 cells; assay type: functional
SF-268 = assay: Antitumor activity against human SF268 cells; assay type: functional
SF-295 = assay: Antitumor activity against human SF295 cells; assay type: functional
SF-539 = assay: Antitumor activity against human SF539 cells; assay type: functional
SNB-19 = assay: Antitumor activity against human SNB19 cells; assay type: functional
SNB-75 = assay: Antitumor activity against human SNB75 cells; assay type: functional
U-251 = assay: Antitumor activity against human U251 cells; assay type: functional
LOX IMVI = assay: Antitumor activity against human LOX IMVI cells; assay type: functional
Malme-3M = assay: Antitumor activity against human MALME-3M cells; assay type: functional
SK-MEL-28 = assay: Antitumor activity against human SK-MEL-28 cells; assay type: functional
SK-MEL-5 = assay: Antitumor activity against human SK-MEL-5 cells; assay type: functional
UACC-257 = assay: Antitumor activity against human UACC257 cells; assay type: functional
UACC-62 = assay: Antitumor activity against human UACC62 cells; assay type: functional
IGROV-1 = assay: Antitumor activity against human IGROV1 cells; assay type: functional
OVCAR-3 = assay: Antitumor activity against human OVCAR-3 cells; assay type: functional
OVCAR-4 = assay: Antitumor activity against human OVCAR4 cells; assay type: functional
OVCAR-5 = assay: Antitumor activity against human OVCAR5 cells; assay type: functional
OVCAR-8 = assay: Antitumor activity against human OVCAR8 cells; assay type: functional
SK-OV-3 = assay: Antitumor activity against human SK-OV-3 cells; assay type: functional
786-0 = assay: Antitumor activity against human 786-0 cells; assay type: functional
A498 = assay: Antitumor activity against human A498 cells; assay type: functional
ACHN = assay: Antitumor activity against human ACHN cells; assay type: functional
CAKI-1 = assay: Antitumor activity against human CAKI-1 cells; assay type: functional
RXF 393 = assay: Antitumor activity against human RXF393 cells; assay type: functional
SN12C = assay: Antitumor activity against human SN12C cells; assay type: functional
TK-10 = assay: Antitumor activity against human TK10 cells; assay type: functional
UO-31 = assay: Antitumor activity against human UO31 cells; assay type: functional
PC-3 = assay: Antitumor activity against human PC3 cells; assay type: functional
DU-145 = assay: Antitumor activity against human DU145 cells; assay type: functional
MDA-MB-435 = assay: Antitumor activity against human MDA-MB-435 cells; assay type: functional
BT-549 = assay: Antitumor activity against human BT549 cells; assay type: functional
HOP-92 [8] = assay: Growth inhibition of human HOP92 cells at 10 nM; assay type: functional
[9] = Growth inhibition of human HS 578T cells at 0.1 uM; assay type: functional
[10] = Growth inhibition of human HS 578T cells at 10 nM; assay type: functional
CCRF-CEM [11] = assay: Growth inhibition of huam CCRF-CEM at 1 uM; assay type: functional; conditions: Homo sapiens
SR [12] = assay: Growth inhibition of human SR cells at 1 uM; assay type: functional

OC[C@H]1C[C@](O)(c2ccc(F)cc2)[C@@H](c2ccc(F)cc2)O1 (relative stereo)
GI50 (MCF7): > 100 µM
GI50 (NCI/ADR-RES): > 100 µM
GI50 [1]: > 100 µM
GI50 [2]: 44.7 µM
GI50 (CCRF-CEM [3]): > 100 µM
GI50 [4]: > 100 µM
GI50 (K562): > 100 µM
GI50 (MOLT-4): 100 µM
GI50 (RPMI-8226): > 100 µM
GI50 (SR [5]): > 100 µM
GI50 (A549): > 100 µM
GI50 (EKVX): > 100 µM
GI50 (HOP-62): > 100 µM
GI50 (HOP-92 [6]): 66.1 µM
GI50 (NCI-H226): > 100 µM
GI50 (NCI-H23): > 100 µM
GI50 [7]: > 100 µM
GI50 (NCI-H460): > 100 µM
GI50 (NCI-H522): > 100 µM
GI50 (COLO 205): > 100 µM
GI50 (HCC 2998): > 100 µM
GI50 (HCT-116): 91.2 µM
GI50 (HCT-15): > 100 µM
GI50 (HT-29): > 100 µM
GI50 (KM12): > 100 µM
GI50 (SW-620): > 100 µM
GI50 (SF-268): > 100 µM
GI50 (SF-295): > 100 µM
GI50 (SF-539): > 100 µM
GI50 (SNB-19): > 100 µM
GI50 (SNB-75): > 100 µM
GI50 (U-251): > 100 µM
GI50 (LOX IMVI): > 100 µM
GI50 (Malme-3M): > 100 µM
GI50 (SK-MEL-28): > 100 µM
GI50 (SK-MEL-5): > 100 µM
GI50 (UACC-257): > 100 µM
GI50 (UACC-62): > 100 µM
GI50 (IGROV-1): 58.9 µM
GI50 (OVCAR-3): > 100 µM
GI50 (OVCAR-4): > 100 µM
GI50 (OVCAR-5): > 100 µM
GI50 (OVCAR-8): > 100 µM
GI50 (SK-OV-3): > 100 µM
GI50 (786-0): > 100 µM
GI50 (A498): > 100 µM
GI50 (ACHN): > 100 µM
GI50 (CAKI-1): > 100 µM
GI50 (RXF 393): 52.5 µM
GI50 (SN12C): > 100 µM
GI50 (TK-10): > 100 µM
GI50 (UO-31): > 100 µM
GI50 (PC-3): > 100 µM
GI50 (DU-145): > 100 µM
GI50 (MDA-MB-435): > 100 µM
GI50 (BT-549): > 100 µM
inhibition at 0.01 µM (HOP-92 [8]): 13%
inhibition at 0.1 µM [9]: 29%

OC[C@H]1C[C@](O)(c2ccc(Cl)cc2)[C@@H](c2ccc(Cl)cc2)O1 (relative stereo)
GI50 (MCF7): 30.2 µM
GI50 (NCI/ADR-RES): 30.2 µM
GI50 [1]: 19.5 µM
GI50 [2]: 18.2 µM
inhibition at 0.01 µM [10]: 21%
GI50 (CCRF-CEM [3]): 0.468 µM
GI50 [4]: 17.4 µM
GI50 (K562): 25.1 µM
GI50 (MOLT-4): 17.8 µM
GI50 (RPMI-8226): 13.8 µM
GI50 (SR [5]): 20.4 µM
GI50 (A549): 29.5 µM
GI50 (EKVX): 18.2 µM
GI50 (HOP-62): 20.9 µM
GI50 (HOP-92 [6]): 17 µM
GI50 (NCI-H226): 26.3 µM
GI50 (NCI-H23): 24.5 µM
GI50 [7]: 35.5 µM
GI50 (NCI-H460): 20 µM
GI50 (NCI-H522): 26.3 µM
GI50 (COLO 205): 25.7 µM
GI50 (HCC 2998): 24 µM
GI50 (HCT-116): 17.4 µM
GI50 (HCT-15): 31.6 µM
GI50 (HT-29): 24 µM
GI50 (KM12): 20.4 µM
GI50 (SW-620): 27.5 µM
GI50 (SF-268): 26.9 µM
GI50 (SF-295): 30.2 µM
GI50 (SF-539): 23.4 µM
GI50 (SNB-19): 38 µM
GI50 (SNB-75): 22.9 µM
GI50 (U-251): 24.5 µM
GI50 (LOX IMVI): 17.8 µM
GI50 (Malme-3M): 21.4 µM
GI50 (SK-MEL-28): 28.8 µM
GI50 (SK-MEL-5): 15.1 µM
GI50 (UACC-257): 21.4 µM
GI50 (UACC-62): 15.8 µM
GI50 (OVCAR-3): 26.3 µM
GI50 (OVCAR-4): 32.4 µM
GI50 (OVCAR-5): 25.7 µM
GI50 (OVCAR-8): 30.9 µM
GI50 (SK-OV-3): 39.8 µM
GI50 (786-0): 22.4 µM
GI50 (A498): 24.5 µM
GI50 (ACHN): 28.2 µM
GI50 (CAKI-1): 26.9 µM
GI50 (RXF 393): 20.9 µM
GI50 (SN12C): 17 µM
GI50 (TK-10): 30.2 µM
GI50 (UO-31): 19.5 µM
GI50 (PC-3): 20 µM
GI50 (DU-145): 21.9 µM
GI50 (MDA-MB-435): 22.9 µM
GI50 (BT-549): 16.6 µM
inhibition at 1 µM (CCRF-CEM [11]): 71%
inhibition at 1 µM (SR [12]): 87%
